Assay: Human HepG2 cell viability assay in 384 well format
Assay type: toxicity, cell-based
Parameters: dose 125 nL, time 70.5 hour; concentration not given beside the values
Conditions: HepG2 cells, read-out: Inhibition

Row | Compound | cytotoxicity at 70.5 h
1 | Cc1ccc(Oc2ncccc2CNC(=O)NC2CCCCC2)cn1 | -6.45%
2 | CC(CS(C)(=O)=O)N(C(=O)Nc1ccc(F)cc1F)C1CC1 (configuration not stated) | -1.48%
3 | CC(=O)c1cc(CN2C[C@@H](CN3CCCC3)[C@@H](CO)C2)n(C)c1 | -5.11%
4 | Cc1cc(S(=O)(=O)NC(=O)CCc2cncc(F)c2)c(C)s1 | -1.54%
5 | CS(=O)(=O)Cc1ccc(C(=O)NC2CCc3nccn3C2)o1 (configuration not stated) | -6.33%
6 | CCN(Cc1ccncc1)CC1(O)CCN(C(=O)c2ccccc2C)C1 (configuration not stated) | -2.28%
7 | CN(C(=O)Cc1ccc2c(c1)OCCO2)C1CCCC1 | 19.8%
8 | Cc1nc(CN2CCCN(CC(=O)N(C)C(C)(C)C#N)CC2)no1 | -10.4%
9 | Cc1ccc(NC2CCN(C(=O)c3n[nH]c4ccccc34)CC2)nn1 | 1.27%
10 | CN(C)CC(=O)N1C[C@H]2CCC[C@@]2(COc2ccccn2)C1 | -16.4%
11 | CCCNC(=O)CN1CCOC(CC)C1 (configuration not stated) | -15.7%
12 | COc1ccc(C(C)n2ccnc2-c2cc3n(n2)CCCNC3)cc1F (configuration not stated) | -0.853%
13 | CC(=O)NC[C@]1(O)CCN(C(=O)c2ccc3c(c2)CCC3)C[C@H]1O | -3.52%
14 | CC(NC(=O)CCOc1ccccc1Cl)c1nnc2n1CCC2 (configuration not stated) | -16.2%
15 | Fc1ccc(OC2CCN(CCn3cncn3)CC2)cc1 | -9.54%
16 | Cc1ncc2c(c1CNC(=O)C1(C)CC1)CCNC2 | -7.68%
17 | Cn1nc(C2CN(C(=O)c3cscn3)C2)c2nccnc21 | -3.87%
18 | CCc1cc(NCC(O)CN2CCCCC2)ncn1 (configuration not stated) | -4.61%
19 | CN1C(=O)C2(CCCN(C(=O)c3ccc(=O)n(C)n3)C2)c2ccccc21 (configuration not stated) | 0.808%
20 | O=C(NCCn1ccnc1)c1cccc(F)c1 | -11.3%
21 | O=C(C1CC1)N1C[C@H]2CNC[C@@]2(C(=O)NCCCc2ccccc2)C1 | -1.55%

Row | Compound | cytotoxicity at 70.5 h
22 | Cc1ccc(-c2ccc(Cl)nn2)cc1S(=O)(=O)N1CCOCC1 | -5.38%
23 | O=C1N(CCO)CCCC12CCN(Cc1noc(C3CCCC3)n1)C2 (configuration not stated) | 5.43%
24 | COc1ccccc1[C@@H]1CN(Cc2csc(C(C)=O)c2)C[C@H]1C(=O)O | -3.94%
25 | O=C(c1cc2cc(I)ccc2[nH]1)N1CCC(Nc2cccnn2)CC1 | 1.42%
26 | O=C(NC1CCC1)c1n[nH]c2c1CNCC2 | -8.89%
27 | CN(C)C(=O)COCC1CN(CC2CCOCC2)Cc2ncn(C)c21 (configuration not stated) | -1.41%
28 | CCN1CCN(C(=O)c2cc(-c3cccs3)cs2)CC1 | 15.8%
29 | Oc1cc(CN2CCCCC2c2cccnc2)nc2c(F)cccc12 (configuration not stated) | -2.95%
30 | OCC1CCCN1c1cc(NCc2ccccn2)ncn1 (configuration not stated) | 0.0157%
31 | Cc1ccc2nc(C(=O)N3C[C@@H](C(=O)O)[C@H](c4ccccc4)C3)cn2c1 | -8.12%
32 | CSc1nccn1-c1cccc(C(=O)NCCN2CCS(=O)(=O)CC2)c1 | 0.708%
33 | Cn1ccnc1CN1CCC2(CC1)COCCN(c1ncccn1)C2 | -5.62%
34 | Cc1c2ncn(CC(=O)NC(C)C)c(=O)c2nn1C | 3.83%
35 | CCNC(=O)[C@@H]1C[C@@H](NC(=O)c2ccc(C#N)cc2)CN1CCCSC | 17.5%
36 | CCc1n[nH]c(NC(=O)c2ccc(Cl)cn2)c1Br | -2.17%
37 | Cc1ccc(CNCC2CCN(CCO)CC2)cc1 | 39.2%
38 | Cc1cc(N(C)C)nc(NCCn2cccn2)n1 | -10%
39 | COc1cccc2c(=O)n(C3CCCNC3)cnc12 (configuration not stated) | -11.4%
40 | COc1ccccc1N1CC(NC(=O)c2cc(C(C)C)nn2C)CC1=O (configuration not stated) | 12.6%
41 | CN1CCC(N(C)c2ccccc2CNCc2ccco2)CC1 | 30.3%
42 | Cc1ccc(-n2nnc(CC(=O)N3CCOCC3)c2C)cc1 | -10.7%

Row | Compound | cytotoxicity at 70.5 h
43 | Cc1cc(C2CCCCN2C(=O)c2cccn2C)nc2nccn12 (configuration not stated) | 4.86%
44 | Cn1ncc2c1CCCC2NCc1ccc(Cl)s1 (configuration not stated) | 4.18%
45 | CC(C)(C)CC1CCCN1Cc1nc(-c2ccco2)no1 (configuration not stated) | 18%
46 | Cc1cc(C)c(S(N)(=O)=O)cc1C(=O)NCCN1CCCCC1 | -16.1%
47 | CCN(CC(=O)NC)S(=O)(=O)N1CCCCC1 | -7.25%
48 | CCOc1ccc([C@@H]2N[C@H](c3nccs3)Cc3ccsc32)cc1OC | -7.07%
49 | FC(F)(F)c1cccc(C2(CNCc3cc[nH]c3)CCOCC2)c1 | -3.76%
50 | COC(=O)N1CCC(CNC(=O)C2CCN(S(C)(=O)=O)CC2)CC1 | -19.3%
51 | O=C(NC1CCC1)[C@@H]1CCO[C@@H]2CCN(C3CCCC3)C[C@H]21 | -3.8%
52 | COCc1cc(N2CCN(Cc3ccncc3)CC2)n2nccc2n1 | -1.74%
53 | CCc1c(-c2ccccc2)nc2c(c(C)c(C)n2CCN(C)C)c1N | 15.2%
54 | COc1ccccc1C(=O)N1CC(=O)N(C2CCCCC2)CC(O)C1 (configuration not stated) | 15.8%
55 | O=C(c1cc(-c2cccnc2)[nH]n1)N1CCCC(Cc2ccccn2)C1 (configuration not stated) | 9.07%
56 | Cc1cccnc1N1CCN(Cc2cc(O)c3cccc(F)c3n2)CC1 | -0.745%
57 | CCCc1nccn1-c1ccc(C(O)CN2CCOCC2)cc1 (configuration not stated) | 27.6%
58 | Cc1nn(C)c(Cl)c1C1CCCN1C(=O)c1cc(Cl)c[nH]1 (configuration not stated) | -17.6%
59 | CCC1=N[C@@]2(CC[C@@H]3CN(Cc4ccc(C)cc4)C[C@@H]32)C(=O)N1C | -2.71%
60 | Cc1ccnc2c1NC(=O)CN2C(=O)CCc1cccs1 | -5.29%
61 | COCC(=O)Nc1nccn1Cc1ccc(Br)cc1 | -0.968%
62 | Cn1cc(Cl)c(C(=O)N2CCC(N3CCc4ccccc4C3)CC2)n1 | -6.46%
63 | NC(=O)CCn1cc(CNCCCc2ccccc2O)c2ccccc21 | 8.33%

Row | Compound | cytotoxicity at 70.5 h
64 | O=C([C@@H](O)Cc1ccccc1)N1CCCn2cncc2C1 | -7.92%
65 | CC(C)Oc1ncccc1CNC(=O)NC1CCOc2ccccc21 (configuration not stated) | 8.32%
66 | c1ccc(Cc2nnc(CN3CCCC(Cn4cncn4)C3)o2)cc1 (configuration not stated) | -13.3%
67 | Cc1nn(C)c(C)c1CCn1cncc1-c1ccc2c(c1)CC(C)N2C (configuration not stated) | 4.43%
68 | CCN1Cc2nc(OC)c(CNC(=O)C3CCCN(C)C3)cc2C1=O (configuration not stated) | -5.45%
69 | Cc1ccc(-n2c(O)cc(C)c(C#N)c2=O)c(C)c1 | -1.45%
70 | O=S(=O)(CCCN1CCCC(Cn2cncn2)C1)c1ccccc1 (configuration not stated) | 4.82%
71 | Cc1cc2n(n1)CC(CNCCNC(=O)c1ccc(F)cc1)CN2 (configuration not stated) | -4.35%
72 | O=S(=O)(NCCc1cn2ccccc2n1)N1CCOCC1 | -7.24%
73 | Cc1cc(C)n(CC2CN(CCC(=O)NC3CCCCC3)CCO2)n1 (configuration not stated) | -9.5%
74 | O=C(C1CN(c2ncc(F)cn2)CC12CCOCC2)N1CCOCC1 (configuration not stated) | -9.96%
75 | CCC(=O)N1CCC(n2cc(C(C)(C)O)nn2)CC1 | -6.93%
76 | Cc1nnc(CN2CCCC2c2ccc3c(c2)OCCCO3)n1C (configuration not stated) | -5.99%
77 | CCC1c2ccccc2CCN1C(=O)c1ccc(OC)nn1 (configuration not stated) | -0.324%
78 | CC(=O)N1CCOC(c2c(C(=O)NC(C)(C)C)sc3ccccc23)C1 (configuration not stated) | -13.1%
79 | Cc1cc(C)n(C2CN(C(=O)Cn3c(C)cc(=O)c4ccccc43)C2)n1 | -5.3%
80 | Cc1ncc(CNCC(=O)NCC(F)(F)F)n1-c1ccccc1 | -5.37%
81 | Cc1nc(CN2C(=O)COC3(CCN(Cc4nccs4)CC3)C2C)cs1 (configuration not stated) | -6.92%
82 | CN(Cc1nc2ccsc2c(=O)[nH]1)CC1CCCCC1 | -6.1%
